The values that follow come from patent US9320766B2, “Protective effects and application of a lactobacillus plantarum on the alleviation of lead toxicity” (priority 2012, dated 2016).

Test [1] deals with lead-exposed mice. As to the kind of experiment: Lead levels of lead-exposed mice. Particulars: mice fed 1 g/L lead acetate solution; compared with lead model and negative control groups, FIG. 3. It is filed as in vivo. The source says: 40 healthy male Kunming mice of 20-25 g are randomly divided into four groups: namely negative control group, lead acetate model group, Lactobacillus plantarum CCFM8661 treatment group, and calcium disodium edetate treatment group as positive control. The mice of negative control group are fed with ordinary drinking water and the mice of remaining three groups are fed with 1 g/L lead acetate solution to obtain the lead exposure models. The mice of Lactobacillus plantarum CCFM8661 treatment group are daily fed with the 2.0×10^9 cfu/mL skim milk suspension prepared in Example 3 of Specifications, and the mice of positive control treatment group are intraperitoneally injected with 5 g/L disodium edetate calcium agent every day. The blood of mice is collected at the end of the experiment, and the liver, stomach and kidney are collected after these mice are sacrificed.
40 healthy male Kunming mice of 20-25 g are taken and randomly divided into four groups: namely negative control group, lead acetate model group, Lactobacillus plantarum CCFM8661 treatment group and calcium disodium edetate treatment group as positive control. […] These organs are processed in accordance with above digestion processes, and then the lead levels can be determined with above atomic absorption spectrophotometry of Example 2.

Test [2] relates to lead-exposed mice. As to the kind of experiment: Oxidative damage caused by lead exposure (liver GSH and MDA). It is filed as in vivo. The following applies: mice fed 1 g/L lead acetate solution, daily treatment. The source says: 40 healthy male Kunming mice of 20-25 g are taken and randomly divided into four groups: namely negative control group, lead acetate model group, Lactobacillus plantarum CCFM8661 treatment group and calcium disodium edetate (EDTANa2Ca) treatment group as positive control. The mice of negative control group are fed with ordinary drinking water and the mice of remaining three groups are fed with 1 g/L lead acetate solution to obtain the lead exposure models. The mice of Lactobacillus plantarum CCFM8661 treatment group are daily fed with the 2.0×10^9 cfu/mL skim milk suspension prepared in Example 3 of this Specification, and the mice of positive control treatment group are intraperitoneally injected with 5 g/L disodium edetate calcium agent every day. The blood is taken at the end of the experiment, and the livers are taken out after these mice are sacrificed. These organs are processed with the Ellmam method (Ellmam, G. C. Tissue sulfhydryl groups. Archives of biochemistry and biophysics 82(1): 70-77.) and the malondialdehyde (MDA) kit of Nanjing Jiancheng Bioengineering Institute to determine the glutathione (GSH) and MDA levels.

Marks after values point to notes of the source that are not given here.

Take `O=C([O-])CN(CCN(CC(=O)[O-])CC(=O)[O-])CC(=O)[O-].[Ca+2].[Na+].[Na+]` [EDTANa2Ca, calcium disodium edetate]: the “lead levels of mice blood, liver, stomach and kidney” value with lead-exposed mice [1] is “higher than that of the negative control group, but lower than that of the lead model control group”. In addition, in the test with lead-exposed mice [2], the “GSH (liver)” value is 2.15 ± 0.50^c mg/g protein and the “MDA (liver)” value is reported as 0.15 ± 0.03^c nmol/mg protein.
